We go through 6 molecules from US8541458B2, “Oxabicycloheptanes and oxabicycloheptenes, their preparation and use” (Lixte Biotechnology, Inc., priority 2008, dated 2013).

Counter-ions that a name gives are not always drawn.

Data set [1] relates to glioblastoma multiforme cells of line U373. The experiment in a line: Inhibition of growth of glioblastoma multiforme cells, 7 days exposure. Format: cell-based. On the procedure:
Inhibition of growth of glioblastoma multiforme cells of line U373 by exposure for 7 days to increasing concentrations of compound 109 compared to 10 uM compound 100.
Inhibition of growth of glioblastoma multiforme cells of line U373 by exposure for 7 days to increasing concentrations of compound 110 compared to 10 uM compound 100.
Inhibition of growth of glioblastoma multiforme cells of line […] by exposure for 7 days to increasing concentrations of compound 113 compared to 10 uM compound 100.
Inhibition of Growth of Glioblastoma Multiforme Cells of Line […] by Exposure for 7 Days to Increasing Concentrations of Compound 109, 110, 112, and 113

The next data set deals with Akt. The experiment in a line: Akt phosphorylation after intraperitoneal administration to mice. In kind it is in vivo. The following applies: given intraperitoneally to normal mice. From the text: The compounds described herein increase the phosphorylation of several regulatory proteins including Akt. At low doses that are non-toxic to mice, these compounds slightly stimulate cell proliferation and increase phosphorylation of Akt in human cancer cells lines tested, including SH-SY5Y.
The mechanism by which the compounds described herein exert their neuroprotective effect may be by increasing the intra-neuronal cell activity of Akt-1 and enhancing the acetylation of neuronal histones. Each of these compounds when given by intraperitoneal injection increase Akt phosphorylation in mouse neurons. This increase in Aky phosphorylation is associated with an increase in the phosphorylation of GSK-3β. Because increased phosphorylation of GSK-3β is known to decrease its activity, chronic suppression of GSK 3β by the compounds described herein may reduce tau phosphorylation. Reduction in tau phosphorylation reduces the formation of paired helical filaments, an intervention that should lessen the progression of tauopathies, including Alzheimer's disease, Parkinson's disease, amyotrophic lateral sclerosis, and other rarer neurodegenerative diseases characterized by abnormal depositions of tau molecules.

Data set [2] has as its system Human Medulloblastoma DAOY cells. The data set can be described thus: DAOY xenografts implanted subcutaneously in SCID mice, tumor volume. The following applies: subcutaneous DAOY xenografts, 0.12 mg and 0.18 mg doses, two weeks of treatment, vs vehicle (PBS). Format: in vivo. As for the experimental part:
Medulloblastoma DAOY cells were implanted subcutaneously in the flanks of SCID mice. After 7 days when the implanted tumor cells reached a mass with the average diameter of 6 mm, 6 animals received 0.12 mg of Compound 110, 6 animals received 0.18 mg of Compound 110, and 6 animals, received vehicle (PBS) only. After two weeks of treatment all animals were sacrificed, the subcutaneous tumor masses resected, and their volumes calculated.
Human Medulloblastoma DAOY cells were implanted subcutaneously in the flanks of SCID mice. After 7 days when the implanted tumor cells reached a mass with the average diameter of 6 mm, 6 animals received 0.12 mg of Compound 110, 6 animals received 0.18 mg of Compound 110, and 6 animals received vehicle (PBS) only. After two weeks of treatment, all animals were sacrificed, the subcutaneous tumor masses resected, and their volumes calculated.

Where [3] appears, read: increasing concentrations, 7 days exposure.

Regarding `CN1CCN(C(=O)C2C3CCC(O3)C2C(=O)Oc2ccc(CC(N)C(=O)O)cc2)CC1` (centres unmarked) (as salt: hydrochloride) [Compound 110, 3-(4-Methylpiperazine-1-carbonyl)-7-oxa-bicyclo[2,2,1]heptane-2-carboxylic acid 4-(2-amino-2-carboxyethyl)-phenyl ester hydrochloride salt], the melting point (as a rule, the temperature, or range, at which the solid turns liquid) is 110 °C (dec.).
For the molecule `O=C(OCc1ccccc1)C1C2CCC(O2)C1C(=O)N1CCN(CCO)CC1` (centres unmarked) [Compound 109, 3-[4-(2-Hydroxyethyl)-piperazine-1-carbonyl]-7-oxa-bicyclo[2.2.1]heptane-2-carboxylic acid benzyl ester], the “inhibition of cell growth” value in data set [1] (highest concentrations, after 3 day) was “slight inhibition of cell growth”. Further, the “stimulation of cell growth” value in data set [1] (lower concentrations, increasing over 7 days) is “slight stimulatory activity”.
On to `CN1CCN(C(=O)C2C3CCC(O3)C2C(=O)Oc2ccc(CC(N)C(=O)O)cc2)CC1` (centres unmarked) [Compound 110, 3-(4-Methylpiperazine-1-carbonyl)-7-oxa-bicyclo[2,2,1]heptane-2-carboxylic acid 4-(2-amino-2-carboxyethyl)-phenyl ester hydrochloride salt], for which the “entry into the brain” value in “Entry into the brain” is recorded as “properties that enhance their entry into the brain”. In the data set with Akt, the Akt phosphorylation result is reported as “increased Akt phosphorylation”. Moreover, the “inhibition of cell growth” value in data set [1] (setting [3]) is “inhibited cell growth in a dose dependent manner”. For the same molecule, the “inhibition of tumor growth (tumor volume)” value in data set [2] is “significant inhibition of tumor growth”.
On to `CN1CCN(C(=O)C2C3CCC(O3)C2C(=O)Oc2ccc(CC(NC(=O)OC(C)(C)C)C(=O)O)cc2)CC1` (centres unmarked) [Compound 112, 3-(4-Methylpiperazine-1-carbonyl)-7-oxa-bicyclo[2,2,1]heptane-2-carboxylic acid 4-(2-tert-butoxycarbonylamino-2-carboxyethyl)-phenyl ester], for which the melting point was 165 °C (dec.). In addition, the “entry into the brain” value in “Entry into the brain” is “properties that enhance their entry into the brain”. Also, the “inhibition of cell growth” value in data set [1] (setting [3]) was “inhibited cell growth in a dose dependent manner”.
For `CN1CCN(C(=O)C2C3CCC(O3)C2C(=O)OCC(Cl)(Cl)Cl)CC1` (centres unmarked) [Compound 113, 3-(4-Methyl-piperazine-1-carbonyl)-7-oxa-bicylco[2,2,1]heptane-2-carboxylic acid 2,2,2-trichloroethyl ester], the “entry into the brain” value in “Entry into the brain” was “properties that enhance their entry into the brain”. Further, in the data set with Akt, the Akt phosphorylation result is “increased Akt phosphorylation”. The “inhibition of cell growth” value in data set [1] (setting [3]) was “inhibited cell growth in a dose dependent manner”.
As to `O=C(O)C1C2CCC(O2)C1C(=O)NCCN1C(=O)NC(c2ccccc2)(c2ccccc2)C1=O` (centres unmarked) [Compound 114, 3-[2-(2,5-Dioxo-4,4-diphenyl-imidazolidin-1-yl)-ethylcarbamoyl]-7-oxa-bicyclo(2.2.1]heptane-2-carboxylic acid], the “entry into the brain” value in “Entry into the brain” is on record as “properties that enhance their entry into the brain”.
